The structures appear in SMILES notation. Where two headings read alike, the source gives them in different places.

Among the data in patent publication US11161850B2, “Fused pyrazine derivatives as A2A / A2B inhibitors” (Incyte Corporation, priority 2018, dated 2021) are Ki and EC50 values, retold here.

The target of one assay is Adenosine A2A (Homo sapiens (Human), UniProt P29274). In words: A2A Tag-Lite HTRF assay. The class given is binding. From the text:
Example C. A2A Tag-Lite® HTRF Assay

Assay [1] deals with human adenosine A2B receptor (Homo sapiens (Human), UniProt P29275). In words: Adenosine A2B Receptor Cyclic AMP GS Assay. It counts as cell-based. The settings on record: HEK-293 cells expressing human A2B, agonist NECA 12 nM. As to the method: Example B. Adenosine A2B Receptor Cyclic AMP GS Assay
human adenosine A2B receptor, sequence (P29275 whole entry): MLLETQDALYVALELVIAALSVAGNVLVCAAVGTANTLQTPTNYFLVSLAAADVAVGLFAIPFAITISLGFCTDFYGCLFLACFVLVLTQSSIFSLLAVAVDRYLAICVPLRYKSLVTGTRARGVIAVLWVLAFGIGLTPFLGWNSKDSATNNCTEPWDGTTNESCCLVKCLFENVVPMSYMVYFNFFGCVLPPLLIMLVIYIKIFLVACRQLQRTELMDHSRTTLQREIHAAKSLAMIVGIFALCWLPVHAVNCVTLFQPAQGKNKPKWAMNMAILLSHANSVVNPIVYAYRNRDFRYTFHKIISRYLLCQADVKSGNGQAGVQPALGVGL
Stably transfected HEK-293 cells expressing the human adenosine A2B receptor (Perkin Elmer) were maintained in MEM culture medium with 10% FBS and 100 μg/mL Geneticin (Life Technologies). 18 to 24 hours prior to assay, geneticin was removed from culture. The cisbio cAMP-GS Dynamic kit utilizing the FRET (Fluorescence Resonance Energy Transfer) technology was used to measure cAMP accumulation in the cells. Compounds of the present disclosure at an appropriate concentration were mixed with 10000 cells/well in white 96 well half area plates (Perkin Elmer) for 30 min at room temperature gently shaking. Agonist, NECA (R&D Technologies) at 12 nM was added to each well for 60 min at room temperature gently shaking. Detection reagents, d2-labeled cAMP (acceptor) and anti-cAMP cryptate (donor) were added to each well for 60 min at rt gently shaking. Plates were read on Pherastar (BMG Labtech), fluorescence ratio 665/620 was calculated and EC50 determination was performed by fitting the curve of percent of control versus the log of the compound concentration using GraphPad Prism.

Where [2] appears, read: Tag-Lite Adenosine A2A labeled cells, fluorescent ligand 12.5 nM, read-out: A2A_Ki.
[3] abbreviates: read-out: A2A_Ki, Tag-Lite Adenosine A2A labeled cells, fluorescent ligand 12.5 nM.

Adenosine A2A, sequence (P29274 whole entry): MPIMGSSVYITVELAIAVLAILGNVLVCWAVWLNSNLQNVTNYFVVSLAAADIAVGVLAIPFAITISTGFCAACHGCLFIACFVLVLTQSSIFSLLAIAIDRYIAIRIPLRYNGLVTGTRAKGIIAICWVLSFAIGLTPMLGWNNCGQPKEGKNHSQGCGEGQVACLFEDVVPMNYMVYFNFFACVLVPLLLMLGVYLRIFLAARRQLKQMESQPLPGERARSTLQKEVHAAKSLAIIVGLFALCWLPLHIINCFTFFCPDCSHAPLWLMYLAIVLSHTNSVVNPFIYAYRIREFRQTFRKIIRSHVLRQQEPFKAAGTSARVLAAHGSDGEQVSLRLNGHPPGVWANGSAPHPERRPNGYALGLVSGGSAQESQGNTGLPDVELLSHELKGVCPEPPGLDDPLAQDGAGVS

On to `Cc1cc(-c2c(-c3cccc(C#N)c3)nc(N)c3nc(C(O)c4c(F)cccc4F)nn23)cc(C)n1` (single isomer, unassigned) [Example 94, 3-(8-amino-2-((2,6-difluorophenyl)(hydroxy)methyl)-5-(2,6-dimethylpyridin-4-yl)-[1,2,4]triazolo[1,5-a]pyrazin-6-yl)benzonitrile], for which the Ki on Adenosine A2A was < 10 nM. This compound also had an EC50 in assay [1] (A2B_cAMP_EC50 (nM)) of 10 to 100 nM.

Take `Cn1cc(-c2cccc(F)c2Cc2nc3c(N)nc(-c4cccc(C#N)c4F)cn3n2)cn1` [Example 83, 3-(8-amino-2-(2-fluoro-6-(1-methyl-1H-pyrazol-4-yl)benzyl)-[1,2,4]triazolo[1,5-a]pyrazin-6-yl)-2-fluorobenzonitrile]: the Ki at Adenosine A2A (setting [2]) was < 10 nM. In assay [1] (A2B_cAMP_EC50 (nM)), the EC50 was < 10 nM.

On to `Cc1nc(C(O)C(F)F)c(-c2c(-c3cccc(C#N)c3F)nc(N)c3nc(Cc4ccccn4)nn23)o1` (stereo not shown) [Example 87, 3-(8-amino-5-(4-(2,2-difluoro-1-hydroxyethyl)-2-methyloxazol-5-yl)-2-(pyridin-2-ylmethyl)-[1,2,4]triazolo[1,5-a]pyrazin-6-yl)-2-fluorobenzonitrile], for which the Ki on Adenosine A2A (setting [2]) was < 10 nM. The EC50 in assay [1] (A2B_cAMP_EC50 (nM)) is 10 to 100 nM.

As for `Cc1nc(C(O)C(F)(F)F)c(-c2c(-c3cccc(C#N)c3F)nc(N)c3nc(Cc4ccccn4)nn23)o1` (stereo not shown) [Example 88, 3-(8-amino-5-(2-methyl-4-(2,2,2-trifluoro-1-hydroxyethyl)oxazol-5-yl)-2-(pyridin-2-ylmethyl)-[1,2,4]triazolo[1,5-a]pyrazin-6-yl)-2-fluorobenzonitrile], the Ki at Adenosine A2A (setting [2]) was < 10 nM. The compound further returned an EC50 in assay [1] (A2B_cAMP_EC50 (nM)) of 10 to 100 nM.

Turning to `N#Cc1cccc(-c2nc(N)c3nc(C(O)c4c(F)cccc4OC(F)F)nn3c2-c2ccncn2)c1` (single isomer, unassigned) [Example 98, 3-(8-amino-2-((2-(difluoromethoxy)-6-fluorophenyl)(hydroxy)methyl)-5-(pyrimidin-4-yl)-[1,2,4]triazolo[1,5-a]pyrazin-6-yl)benzonitrile], the Ki at Adenosine A2A (setting [3]) is < 10 nM. Further, in assay [1] (read-out: A2B_cAMP_EC50), the EC50 was < 10 nM.

On to `CN(C)Cc1cccc(F)c1C(O)c1nc2c(N)nc(-c3cccc(C#N)c3)c(-c3ccncn3)n2n1` (single isomer, unassigned) [Example 100, 3-(8-amino-2-((2-((dimethylamino)methyl)-6-fluorophenyl)(hydroxy)methyl)-5-(pyrimidin-4-yl)-[1,2,4]triazol[1,5-a]pyrazin-6-yl)benzonitrile], for which the Ki on Adenosine A2A was < 10 nM. Also, in assay [1] (A2B_cAMP_EC50 (nM)), the EC50 lay in the range of 100 to 1000 nM.

In the case of `Cc1n[nH]cc1-c1c(-c2cccc(C#N)c2)nc(N)c2nc(C(O)c3c(F)cccc3F)nn12` (single isomer, unassigned) [Example 103, 3-(8-amino-2-((2,6-difluorophenyl)(hydroxy)methyl)-5-(3-methyl-1H-pyrazol-4-yl)-[1,2,4]triazolo[1,5-a]pyrazin-6-yl)benzonitrile], the Ki on Adenosine A2A (setting [3]) was < 10 nM. For the same compound, in assay [1] (read-out: A2B_cAMP_EC50), the EC50 was < 10 nM.

Consider `Cc1ncoc1-c1c(-c2cccc(C#N)c2)nc(N)c2nc(Cc3ccccn3)nn12` [Example 42, 3-(8-Amino-5-(4-methyloxazol-5-yl)-2-(pyridin-2-ylmethyl)-[1,2,4]triazolo[1,5-a]pyrazin-6-yl)benzonitrile], for which the Ki on Adenosine A2A (setting [2]) was < 10 nM. For the same compound, the EC50 in assay [1] (A2B_cAMP_EC50 (nM)) was < 10 nM.

Turning to `N#Cc1cccc(-c2nc(N)c3nc(C(O)c4cccc(F)c4F)nn3c2-c2ccncn2)c1` (single isomer, unassigned) [Example 54, 3-(8-Amino-2-((2,3-difluorophenyl)(hydroxy)methyl)-5-(pyrimidin-4-yl)-[1,2,4]triazolo[1,5-a]pyrazin-6-yl)benzonitrile], at Adenosine A2A (setting [3]), the Ki was < 10 nM. In assay [1] (read-out: A2B_cAMP_EC50), the EC50 is < 10 nM.

As to `N#Cc1cccc(-c2nc(N)c3nc(Cn4ccc5cccnc54)nn3c2-c2ccncn2)c1` [Example 32, 3-(2-((1H-Pyrrolo[2,3-b]pyridin-1-yl)methyl)-8-amino-5-(pyrimidin-4-yl)-[1,2,4]triazolo[1,5-a]pyrazin-6-yl)benzonitrile], the Ki at Adenosine A2A (setting [2]) was < 10 nM. Also, the EC50 in assay [1] (A2B_cAMP_EC50 (nM)) is < 10 nM.

For `Cn1cc(-c2cccnc2Cc2nc3c(N)nc(-c4cccc(C#N)c4)c(-c4ccncn4)n3n2)cn1` [Example 122, 3-(8-Amino-2-((3-(1-methyl-1H-pyrazol-4-yl)pyridin-2-yl)methyl)-5-(pyrimidin-4-yl)-[1,2,4]triazolo[1,5-a]pyrazin-6-yl)benzonitrile], the Ki on Adenosine A2A (setting [2]) is < 10 nM. In addition, the EC50 in assay [1] (A2B_cAMP_EC50 (nM)) is 10 to 100 nM.

On to `N#Cc1cccc(-c2nc(N)c3nc(C(O)c4ccccc4)nn3c2-c2ccncn2)c1` (stereo not shown) [Example 59, 3-(8-Amino-2-(hydroxy(phenyl)methyl)-5-(pyrimidin-4-yl)-[1,2,4]triazolo[1,5-a]pyrazin-6-yl)benzonitrile], for which the Ki at Adenosine A2A (setting [2]) was < 10 nM. The compound further displayed an EC50 in assay [1] (A2B_cAMP_EC50 (nM)) of 10 to 100 nM.

Consider `Cc1cc(-c2c(-c3cccc(C#N)c3F)nc(N)c3nc(C(O)c4c(F)cccc4F)nn23)cc(C)n1` (stereo not shown) [Example 126, 3-(8-amino-2-((2,6-difluorophenyl)(hydroxy)methyl)-5-(2,6-dimethylpyridin-4-yl)-[1,2,4]triazolo[1,5-a]pyrazin-6-yl)-2-fluorobenzonitrile], for which the Ki at Adenosine A2A (setting [2]) was < 10 nM. This compound yielded an EC50 in assay [1] (A2B_cAMP_EC50 (nM)) of 10 to 100 nM.

With `CN1CCC2(CN(Cc3cccc(F)c3Cc3nc4c(N)nc(-c5cccc(C#N)c5)c(-c5ccncn5)n4n3)C2)C1=O` [Example 66, 3-(8-amino-2-(2-fluoro-6-((6-methyl-5-oxo-2,6-diazaspiro[3.4]octan-2-yl)methyl)benzyl)-5-(pyrimidin-4-yl)-[1,2,4]triazolo[1,5-a]pyrazin-6-yl)benzonitrile], the Ki at Adenosine A2A (setting [2]) is < 10 nM. Besides, the EC50 in assay [1] (A2B_cAMP_EC50 (nM)) is < 10 nM.

In the case of `CCN(CC)C(=O)c1cc2c(N)nc(-c3cccc(C#N)c3)c(-c3ccncn3)n2n1` [Example 10, 4-Amino-6-(3-cyanophenyl)-N,N-diethyl-7-(pyrimidin-4-yl)pyrazolo[1,5-a]pyrazine-2-carboxamide], the Ki on Adenosine A2A (setting [2]) is < 10 nM. Also, the EC50 in assay [1] (A2B_cAMP_EC50 (nM)) is < 10 nM.

For `CN(C)Cc1cccc(F)c1C(O)c1nc2c(N)nc(-c3cccc(C#N)c3)c(-c3ccncn3)n2n1` (single isomer, unassigned) [Example 101, 3-(8-amino-2-((2-((dimethylamino)methyl)-6-fluorophenyl)(hydroxy)methyl)-5-(pyrimidin-4-yl)-[1,2,4]triazolo[1,5-a]pyrazin-6-yl)benzonitrile], on Adenosine A2A (setting [3]), the Ki is < 10 nM. Besides, the EC50 in assay [1] (A2B_cAMP_EC50 (nM)) was < 10 nM.

`N#Cc1cccc(-c2nc(N)c3cc(C(=O)N4CCCCC4)nn3c2-c2ccncn2)c1` [Example 9, 3-(4-Amino-2-(piperidine-1-carbonyl)-7-(pyrimidin-4-yl)pyrazolo[1,5-a]pyrazin-6-yl)benzonitrile]: the Ki at Adenosine A2A (setting [2]) was < 10 nM. Moreover, the EC50 in assay [1] (A2B_cAMP_EC50 (nM)) fell in the range of 10 to 100 nM.

`N#Cc1cccc(-c2nc(N)c3nc(Cc4cccn5ccnc45)nn3c2-c2ccncn2)c1` [Example 45, 3-(8-Amino-2-(imidazo[1,2-a]pyridin-8-ylmethyl)-5-(pyrimidin-4-yl)-[1,2,4]triazolo[1,5-a]pyrazin-6-yl)benzonitrile]: the Ki at Adenosine A2A (setting [2]) was < 10 nM. Besides, in assay [1] (A2B_cAMP_EC50 (nM)), the EC50 was < 10 nM.

With `CCn1nccc1-c1c(-c2cccc(C#N)c2)nc(N)c2cc(Cc3ccccn3)nn12` [Example 18, 3-(4-Amino-7-(1-ethyl-1H-pyrazol-5-yl)-2-(pyridin-2-ylmethyl)pyrazolo[1,5-a]pyrazin-6-yl)benzonitrile], the Ki at Adenosine A2A (setting [2]) is < 10 nM. In assay [1] (A2B_cAMP_EC50 (nM)), the EC50 was < 10 nM.

As for `N#Cc1cccc(-c2nc(N)c3nc(Cc4c(F)cccc4CN4CC(C(=O)O)C4)nn3c2-c2ccncn2)c1` [Example 31, 1-(2-((8-Amino-6-(3-cyanophenyl)-5-(pyrimidin-4-yl)-[1,2,4]triazolo[1,5-a]pyrazin-2-yl)methyl)-3-fluorobenzyl)azetidine-3-carboxylic Acid], on Adenosine A2A (setting [2]), the Ki is < 10 nM. The compound further gave an EC50 in assay [1] (A2B_cAMP_EC50 (nM)) of 10 to 100 nM.

On to `N#Cc1cccc(-c2nc(N)c3nc(Cc4c(F)cccc4CN4CCN5C(=O)CCC5C4)nn3c2-c2ccncn2)c1` (stereo not shown) [Example 67, 3-(8-amino-2-(2-fluoro-6-((6-oxohexahydropyrrolo[1,2-a]pyrazin-2(1H)-yl)methyl)benzyl)-5-(pyrimidin-4-yl)-[1,2,4]triazolo[1,5-a]pyrazin-6-yl)benzonitrile], for which the Ki at Adenosine A2A (setting [2]) was < 10 nM. Moreover, the EC50 in assay [1] (A2B_cAMP_EC50 (nM)) is < 10 nM.

Regarding `N#Cc1cccc(-c2nc(N)c3nc(C(O)c4cccc(F)c4F)nn3c2-c2ccncn2)c1` (single isomer, unassigned) [Example 53, 3-(8-Amino-2-((2,3-difluorophenyl)(hydroxy)methyl)-5-(pyrimidin-4-yl)-[1,2,4]triazolo[1,5-a]pyrazin-6-yl)benzonitrile], the Ki on Adenosine A2A was < 10 nM. Also, the EC50 in assay [1] (A2B_cAMP_EC50 (nM)) was < 10 nM.

For `Cc1ncoc1-c1c(-c2cccc(C#N)c2)nc(N)c2nc(C(N)c3ccccc3F)nn12` (stereo not shown) [Example 80, 3-(8-amino-2-(amino(2-fluorophenyl)methyl)-5-(4-methyloxazol-5-yl)-[1,2,4]triazolo[1,5-a]pyrazin-6-yl)benzonitrile], at Adenosine A2A (setting [2]), the Ki is < 10 nM. In addition, in assay [1] (A2B_cAMP_EC50 (nM)), the EC50 is < 10 nM.
